Laboratory results taken from patent publication US7851606B2, “Negatively charged minor groove binders” (Elitech Holding B.V., priority 2002, dated 2010).
{CDPI3-SO3} = negatively charged sulfonated CDPI3 minor groove binder; {CDPI4-(SO3)2} = disulfonated CDPI4 minor groove binder; {CDPI3(C)} = code of the source, not defined here; {CDPI3(N)} = code of the source, not defined here

What was measured:
[1] = tested on: complementary targets that contain A/C mismatch at positions 5, 6, 7 and 8; assay: Mismatch discrimination of oligonucleotide conjugates 5′-CCAAAATTAC-X^11-3′ hybridized to complementary targets (Example 4); assay type: binding; details: for ΔΔG° between match and mismatch: calculated at 50° C.
Procedure: This example illustrates conjugates of the present invention to perform mismatch discrimination.
Oligonucleotide conjugates 5′-CCAAAATTAC-X^11-3′ (SEQ ID NO:1), where X ^11 is a minor groove binder of FIG. 1, were hybridized to different complementary targets that contain A/C mismatch at positions 5, 6, 7 and 8, relative to the attached minor groove binder.
The relative free energy difference (ΔΔG°) between match and mismatch at positions 5, 6, 7 and 8 were calculated at 50° C. and are listed in Table below. The ΔΔG° values were calculated as described in U.S. application Ser. No. 09/796,988.
Table of ΔΔG° between match and mismatch calculated at 50° C. for different conjugates.

[2] = tested on: matched complement of ODN # 1; assay: Thermodynamic properties / mismatch discrimination of 3′-conjugated GGTTTTAATG-X″ sequences (Example 5, FIG. 2); assay type: binding; details: C/A mismatch at positions 5, 6, 7 and 8; 50° C.; PCR buffer; oligonucleotide 5×10^−7M; in words
Procedure: Thermodynamic properties of 3′ -conjugated, where X″ represents the attached minor groove binder which is either CDPI3 (C), CDPI3 (N) and CDPI4-(SO3^−)2. The parameters were determined at PCR buffer, where the oligonucleotide concentration was 5×10^−7M. The sequences below were hybridized to matched complement of ODN # 1. The relative free energy difference (ΔΔG°) between match and mismatch at positions 5, 6, 7 and 8 were calculated at 50° C. and plotted in FIG. 2. The bold C base in the sequences indicates the position of the C/A mismatch.

Row | Substance | ΔΔG° between match and mismatch ([1]; A/C mismatch position 5) [kcal/mol] | ΔΔG° between match and mismatch ([1]; A/C mismatch position 6) [kcal/mol] | ΔΔG° between match and mismatch ([1]; A/C mismatch position 7) [kcal/mol] | ΔΔG° between match and mismatch ([1]; A/C mismatch position 8) [kcal/mol] | mismatch discrimination performance versus the other conjugates in the Table ([1]; in words) | mismatch discrimination (ΔΔG° plotted in FIG. 2) [2]
1 | CDPI3 (C): Oligonucleotide conjugate 5′-CCAAAATTAC-X^11-3′, X^11 being the minor groove binder CDPI3 (C) of FIG. 1 (3' {CDPI3(C)}, sugars by position and backbone not given here) | 4.87 | 6.22 | 6.24 | 5.52 |  | 
2 | CDPI3 (N): Oligonucleotide conjugate 5′-CCAAAATTAC-X^11-3′, X^11 being the minor groove binder CDPI3 (N) of FIG. 1 (3' {CDPI3(N)}, sugars by position and backbone not given here) | 5.28 | 6.32 | 5.55 | 5.51 |  | 
3 | CDPI3—SO3^−: Oligonucleotide conjugate 5′-CCAAAATTAC-X^11-3′, X^11 being the negatively charged minor groove binder CDPI3-SO3^− of FIG. 1 (3' {CDPI3-SO3}, sugars by position and backbone not given here) | 4.26 | 5.16 | 5.55 | 4.32 | comparable to the other conjugates | 
4 | CDPI4-(SO3^−)2: 3′-conjugated oligonucleotide GGTTTTAATG-X″, X″ being the attached minor groove binder CDPI4-(SO3^−)2 (3' {CDPI4-(SO3)2}, sugars by position and backbone not given here) |  |  |  |  |  | comparable mismatch discrimination
